Data published in paper PMC5281649 (European Journal of Nuclear Medicine and Molecular Imaging, 2016).
Read-outs that look alike come from different tables or passages of the source.

Target: T1, brain MAO-B enzyme (Homo sapiens, UniProt P27338)
T1 sequence (P27338 1-520): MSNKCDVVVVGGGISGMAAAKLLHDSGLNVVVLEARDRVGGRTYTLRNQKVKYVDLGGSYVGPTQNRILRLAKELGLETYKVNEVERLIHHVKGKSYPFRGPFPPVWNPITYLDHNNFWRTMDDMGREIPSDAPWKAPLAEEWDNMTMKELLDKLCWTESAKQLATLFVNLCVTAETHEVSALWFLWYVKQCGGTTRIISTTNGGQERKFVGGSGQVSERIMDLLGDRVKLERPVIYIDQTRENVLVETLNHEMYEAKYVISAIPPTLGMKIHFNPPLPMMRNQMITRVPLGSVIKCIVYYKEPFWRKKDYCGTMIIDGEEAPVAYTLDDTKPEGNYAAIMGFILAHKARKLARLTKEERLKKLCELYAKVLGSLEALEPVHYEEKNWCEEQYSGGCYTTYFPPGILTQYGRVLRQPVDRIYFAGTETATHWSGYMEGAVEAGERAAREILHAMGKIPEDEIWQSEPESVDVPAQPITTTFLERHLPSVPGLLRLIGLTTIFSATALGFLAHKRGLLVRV
Assay: PET with [11C]-L-deprenyl-D2: brain MAO-B inhibition after repeated oral sembragiline
Format: in vivo
Details: for receptor occupancy at 0.2 mg: 168 h; for receptor occupancy at 0.2 mg / receptor occupancy at 1 mg / [11C]-L-deprenyl-D2 λk3 post-dose: mean (range); for receptor occupancy at 0.2 mg / receptor occupancy at 1 mg: read-out: Occ (MAO-B occupancy); for receptor occupancy at 1 mg: 336 h
Procedure: The first dose was administered at the study centre under the supervision of study personnel. On subsequent study days, treatment compliance was assured by intake logs and tablet counting.
At baseline, each subject underwent a PET scan using [^11C]-L-deprenyl-D2 to measure MAO-B enzyme activity in the brain prior to their first dose of allocated medication. The second scan was performed at trough concentrations at steady state prior to the last drug administration. Before each scan, a cannula was inserted into a radial artery and another into an antecubital vein. A sterile phosphate buffer (pH = 7.4) containing radioligand was injected as a bolus over several seconds into the cubital vein.
A transmission scan was performed using three rotating ^68Ge rod sources. [^11C]-L-Deprenyl-D2 was injected intravenously as a bolus, and emission data were acquired over 63 min using the ECAT EXACT high-resolution system (Siemens Medical Solutions, Malvern, PA, USA). The injected radioactivity was targeted to approximately 300 MBq. The injected mass of deprenyl was to be ≤100 μg, and ≥50–100-fold lower than the typical administered dose of 5–10 mg deprenyl to patients with Parkinson’s disease. The framing was as follows: 9 frames x 10 s, 2 frames x 15 s, 3 frames x 20 s, 4 frames x 30 s, 4 frames x 60 s, 4 frames x 180 s, 7 frames x 360 s. Images were reconstructed using the standard filtered back-projection, with a 2-mm Hanning filter, a zoom factor of 2.17, and a 128 × 128 matrix, and were corrected for attenuation and scatter. A summation PET image was created for each subject and PET session by averaging across all frames. Time–activity curves were then extracted from selected ROIs.
Arterial blood samples were used for measurement of radioactivity in whole blood and plasma, as well as to determine the parent fraction of the radioligand, using a reversed-phase high-performance liquid chromatography method (Karolinska University Hospital, Solna, Stockholm, Sweden). A catheter was inserted in the radial artery, and arterial blood was collected continuously for 10 min using an automated blood sampling system at a speed of 5 mL/min. Discrete blood samples were drawn approximately 10, 15, 20, 30, 45 and 60 min after each injection of [^11C]-L-deprenyl-D2.
Time–activity data were analysed as previously described. Briefly, [^11C]-L-deprenyl-D2 was quantified by the two-tissue compartment model with three rate constants (K 1, k 2, k 3) using the PMOD 3.3 software package (PMOD Group, Zurich, Switzerland), where the tissue compartments represent the free plus non-specifically bound and specifically bound radiotracer. The outcome measure λk 3 was calculated as (K 1/k 2)*k 3, using a non-linear approach, and was used as an estimate for specific binding to MAO-B that was independent of perfusion. […] This is because λk3 is independent of perfusion and has better reproducibility than k3 alone.

[1] = EC subjects, 1 mg q.d. for 14 days, frontal cortex, N = 3

MAO-B inhibition at trough (mean values) (1 mg, across all brain ROIs and study populations): 75–86%
MAO-B inhibition (overall range) (1 mg, six brain ROIs and study populations, overall): 71–88%
MAO-B inhibition (mean values) (5-mg dose, across brain ROIs): 76–86%
receptor occupancy at 0.2 mg (EC subjects, 5 mg loading day 1 then 0.2 mg q.d. days 2–7, frontal cortex, N = 3): 51.7%
receptor occupancy at 0.2 mg (EC subjects, 5 mg loading day 1 then 0.2 mg q.d. days 2–7, hippocampus, N = 3): 51.6%
receptor occupancy at 0.2 mg (EC subjects, 5 mg loading day 1 then 0.2 mg q.d. days 2–7, parietal cortex, N = 3): 50.7%
receptor occupancy at 0.2 mg (EC subjects, 5 mg loading day 1 then 0.2 mg q.d. days 2–7, striatum, N = 3): 56.1%
receptor occupancy at 0.2 mg (EC subjects, 5 mg loading day 1 then 0.2 mg q.d. days 2–7, thalamus, N = 3): 53.7%
receptor occupancy at 0.2 mg (EC subjects, 5 mg loading day 1 then 0.2 mg q.d. days 2–7, whole brain, N = 3): 49.1%
receptor occupancy at 1 mg [1]: 76.2%
receptor occupancy at 1 mg (EC subjects, 1 mg q.d. for 14 days, hippocampus, N = 3): 83.9%
receptor occupancy at 1 mg (EC subjects, 1 mg q.d. for 14 days, parietal cortex, N = 3): 76.1%
receptor occupancy at 1 mg (EC subjects, 1 mg q.d. for 14 days, striatum, N = 3): 84.7%
receptor occupancy at 1 mg (EC subjects, 1 mg q.d. for 14 days, thalamus, N = 3): 85.7%
receptor occupancy at 1 mg (EC subjects, 1 mg q.d. for 14 days, whole brain, N = 3): 75.4%
[11C]-L-deprenyl-D2 λk3 post-dose (AD patients, 1 mg q.d. for 14 days, frontal cortex, N = 2): 0.04 (0.03–0.04)
[11C]-L-deprenyl-D2 λk3 post-dose (AD patients, 1 mg q.d. for 14 days, hippocampus, N = 2): 0.05 (0.05–0.05)
[11C]-L-deprenyl-D2 λk3 post-dose (AD patients, 1 mg q.d. for 14 days, parietal cortex, N = 2): 0.04 (0.03–0.05)
[11C]-L-deprenyl-D2 λk3 post-dose (AD patients, 1 mg q.d. for 14 days, striatum, N = 2): 0.04 (0.04–0.05)
[11C]-L-deprenyl-D2 λk3 post-dose (AD patients, 1 mg q.d. for 14 days, thalamus, N = 2): 0.04 (0.04–0.04)
[11C]-L-deprenyl-D2 λk3 post-dose (AD patients, 1 mg q.d. for 14 days, whole brain, N = 2): 0.04 (0.04–0.05)
[11C]-L-deprenyl-D2 λk3 post-dose (AD patients, 5 mg loading day 1 then 0.1 mg q.d. days 2–15, frontal cortex, N = 2): 0.07 (0.06–0.08)
[11C]-L-deprenyl-D2 λk3 post-dose (AD patients, 5 mg loading day 1 then 0.1 mg q.d. days 2–15, hippocampus, N = 2): 0.11 (0.10–0.11)
[11C]-L-deprenyl-D2 λk3 post-dose (AD patients, 5 mg loading day 1 then 0.1 mg q.d. days 2–15, parietal cortex, N = 2): 0.07 (0.07–0.08)
[11C]-L-deprenyl-D2 λk3 post-dose (AD patients, 5 mg loading day 1 then 0.1 mg q.d. days 2–15, striatum, N = 2): 0.12 (0.11–0.13)
[11C]-L-deprenyl-D2 λk3 post-dose (AD patients, 5 mg loading day 1 then 0.1 mg q.d. days 2–15, whole brain, N = 2): 0.08 (0.08–0.09)
[11C]-L-deprenyl-D2 λk3 post-dose (AD patients, 5 mg loading day 1 then 0.2 mg q.d. days 2–7, frontal cortex, N = 3): 0.06 (0.05–0.07)
[11C]-L-deprenyl-D2 λk3 post-dose (AD patients, 5 mg loading day 1 then 0.2 mg q.d. days 2–7, hippocampus, N = 3): 0.07 (0.07–0.08)
[11C]-L-deprenyl-D2 λk3 post-dose (AD patients, 5 mg loading day 1 then 0.2 mg q.d. days 2–7, parietal cortex, N = 3): 0.06 (0.05–0.07)
[11C]-L-deprenyl-D2 λk3 post-dose (AD patients, 5 mg loading day 1 then 0.2 mg q.d. days 2–7, striatum, N = 3): 0.08 (0.08–0.08)
[11C]-L-deprenyl-D2 λk3 post-dose (AD patients, 5 mg loading day 1 then 0.2 mg q.d. days 2–7, thalamus, N = 3): 0.07 (0.07–0.07)
[11C]-L-deprenyl-D2 λk3 post-dose (AD patients, 5 mg loading day 1 then 0.2 mg q.d. days 2–7, whole brain, N = 3): 0.06 (0.06–0.07)
[11C]-L-deprenyl-D2 λk3 post-dose (AD patients, 5 mg q.d. for 6–9 days, frontal cortex, N = 2): 0.04 (0.04–0.04)
[11C]-L-deprenyl-D2 λk3 post-dose (AD patients, 5 mg q.d. for 6–9 days, hippocampus, N = 2): 0.04 (0.03–0.05)
[11C]-L-deprenyl-D2 λk3 post-dose (AD patients, 5 mg q.d. for 6–9 days, parietal cortex, N = 2): 0.04 (0.03–0.04)
[11C]-L-deprenyl-D2 λk3 post-dose (AD patients, 5 mg q.d. for 6–9 days, striatum, N = 2): 0.05 (0.04–0.05)
[11C]-L-deprenyl-D2 λk3 post-dose (AD patients, 5 mg q.d. for 6–9 days, whole brain, N = 2): 0.04 (0.04–0.05)
[11C]-L-deprenyl-D2 λk3 post-dose [1]: 0.04 (0.04–0.05)
Structure (SMILES): CC(=O)N[C@H]1CC(=O)N(c2ccc(OCc3cccc(F)c3)cc2)C1 [sembragiline]
